# In ChEMBL document CHEMBL4118074, “Design, synthesis and structure-activity relationship studies of a novel focused library of 2,3,4-substituted oxazolidines with antiproliferative activity against cancer cell lines” (Eur J Med Chem, 2017):
# Key:
# HCT-116 = experiment: Antiproliferative activity against human HCT116 cells after 48 hrs by MTT assay; assay type: functional, cell-based; details: HCT-116, 48 h
# Vero = experiment: Cytotoxicity against African green monkey Vero cells after 48 hrs by MTT assay; assay type: cell-based; details: Chlorocebus sabaeus
# MDA-MB-231 = experiment: Antiproliferative activity against human MDA-MB-231 cells after 48 hrs by MTT assay; assay type: functional, cell-based; details: MDA-MB-231, 48 h
# MCF7 = experiment: Antiproliferative activity against human MCF7 cells after 48 hrs by MTT assay; assay type: functional, cell-based; details: MCF7, 48 h
# HL-60 = experiment: Antiproliferative activity against human HL60 cells after 48 hrs by MTT assay; assay type: functional, cell-based; details: HL-60, 48 h
# Jurkat = experiment: Antiproliferative activity against human Jurkat T cells after 48 hrs by MTT assay; assay type: functional, cell-based
IC50 (HCT-116),IC50 (MDA-MB-231),IC50 (MCF7),IC50 (HL-60),IC50 (Jurkat),SMILES,IC50 (Vero)
> 50 µM,> 50 µM,> 50 µM,> 50 µM,–,CC(C)(C)OC(=O)N[C@H](CO)COc1ccc([N+](=O)[O-])cc1,> 100 µM
> 50 µM,> 50 µM,> 50 µM,> 50 µM,> 50 µM,CC(C)(C)C(=O)N1[C@@H](COc2ccc([N+](=O)[O-])cc2)COC1(C)C,> 100 µM
> 50 µM,> 50 µM,> 50 µM,> 50 µM,> 50 µM,CC(C)(C)CC(=O)N1[C@@H](COc2ccc([N+](=O)[O-])cc2)COC1(C)C,> 100 µM
> 50 µM,> 50 µM,> 50 µM,> 50 µM,> 50 µM,CN1CCN(C(=O)c2ccc(OC[C@H]3COC(C)(C)N3C(=O)OC(C)(C)C)cc2)CC1,–
